Experimental data taken from patent publication US11370825B2, “Polypeptides, cells, and methods involving engineered CD16” (Regents of the University of Minnesota, priority 2014, dated 2022).

How the values were obtained:
NK92 cells = assay: Cell surface CD16a levels on transduced NK92 cells after activation, flow cytometry; type: cell-based, human
Protocol: FIG. 4. Effects of the engineered S197P mutation on CD16a shedding in NK cells. NK92 cells transduced with empty vector (vector only), CD16a, or CD16a/S197P were treated without (Unstim.) or with PMA (100 ng/ml) for 30 minutes at 37° C. (A), with IL-12 and IL-18 (100 ng/ml and 400 ng/ml, respectively) for 24 hours at 37° C. (B), or with Raji cells and rituximab for 60 minutes at 37° C. (C). Cell surface levels of CD16a were determined by flow cytometry. Isotype-matched negative control antibody staining is indicated by a dotted line. (D) Parent NK92 cells and transduced cells expressing CD16a or CD16a/S197P were treated with Raji cells and rituximab in the presence or absence of the ADAM17 inhibitor BMS566394 (5 μM) for 60 minutes at 37° C. Soluble CD16a levels were determined by ELISA. Each treatment condition was repeated three times and the data are representative of three independent experiments. Bar graphs show mean±SD. Statistical significance is indicated as ***P<0.001. (E) NK92 cells expressing CD16a or CD16a/S197P were stained with the anti-ADAM17 mAbs M220, 623, 633, or an isotype-matched negative control antibody, as indicated. (F) CD56^+CD45^+ NK cells derived from mock-transduced iPSCs (left panel) or iPSCs expressing recombinant CD16a or CD16a/S197P (right panels) were incubated with or without K562 target cells for four hours at 37° C. For all histogram plots, the x-axis=Log 10 fluorescence, the y-axis=cell number, and the data are representative of at least 3 independent experiments.
HEK293 cells (a human embryonic kidney cell line) and NK92 cells (a human NK cell line) (ATCC, Manassas, Va.) were cultured according to the depository's instructions. HEK293 cells were transiently transfected with pcDNA3.1 with or without CD16b, CD16b/S197P, and/or L-selectin using Lipofectamine 2000 (Invitrogen, Carlsbad, Calif.) according to the manufacturer's instructions. […] Construct expression was assessed by EGFP fluorescence and CD16 staining, as determined by flow cytometry. […]

ADAM17 = assay: Soluble CD16a released from transfected HEK293 cells stably expressing human γ chain, ELISA (shedding); type: cell-based; conditions: untreated and PMA-treated HEK293 cells stably expressing human γ chain
Protocol: FIG. 3. Effects of the engineered S197P mutation on CD16a and CD16b shedding. Transfected HEK293 (human embryonic kidney) cells separately expressed CD16b and CD16b/S197P (A) or CD16a and CD16a/S197P (B) at similar levels, as determined by flow cytometry (left panels). The different transfectants were treated with or without PMA (15 ng/ml for 30 minutes at 37° C.) and soluble levels of CD16 in the media supernatant were quantified by ELISA (right panels). Each treatment condition was repeated three times for each experiment and the data are representative of three independent experiments. Bar graphs show mean±SD. Statistical significance is indicated as ***P<0.001. […] Surface levels of L-selectin and CD16b/S197P on transfected and mock-transfected cells were measured using flow cytometry (histogram plots). Transfectants expressing L-selectin or L-selectin and CD16b/S197P were incubated in the presence or absence of PMA for 30 minutes at 37° C., and the mean fluorescence intensity (MFI) of L-selectin staining determined (bar graph). […] For all histogram plots, the x-axis=Log 10 fluorescence and the y-axis=cell number.
HEK293 cells (a human embryonic kidney cell line) and NK92 cells (a human NK cell line) (ATCC, Manassas, Va.) were cultured according to the depository's instructions. […] Construct expression was assessed by EGFP fluorescence and CD16 staining, as determined by flow cytometry. […]

Substance	down-regulation in cell surface expression of CD16 (NK92 cells; IL-12 100 ng/ml and IL-18 400 ng/ml, 24 hours at 37° C.)	down-regulation in cell surface expression of CD16 (NK92 cells; PMA 100 ng/ml, 30 minutes at 37° C.)	down-regulation in cell surface expression of CD16 (NK92 cells; Raji cells treated with rituximab, 60 minutes at 37° C.)	soluble levels of receptor in media supernatant compared to CD16a (ADAM17)
CD16a: Wild-type human IgG Fc receptor CD16a (FcγRIIIa), valine allelic variant, recombinant comparator [reference compound]	appreciable down-regulation	marked down-regulation	induced the down-regulation	
CD16a/S197P: Human CD16a (FcγRIIIa, SEQ ID NO:1) with serine-197 substituted by proline in the membrane proximal cleavage region; expressed recombinantly in cells				significantly lower levels
